Tests used:
Assay type in all cases: in vivo
Nightshade = assay: Test C preemergence; details: scale 0 to 100, 0 no effect, 100 complete control
Description: (§1) Seeds of plant species selected from bermudagrass (Cynodon dactylon), Surinam grass (Brachiaria decumbens), cocklebur (Xanthium strumarium), corn (Zea mays), crabgrass (Digitaria sanguinalis), woolly cupgrass (Eriochloa villosa), giant foxtail (Setaria faberii), goosegrass (Eleusine indica), johnsongrass (Sorghum halepense), kochia (Kochia scoparia), lambsquarters (Chenopodium album), morningglory (Ipomoea hederacea), yellow nutsedge (Cyperus esculentus), pigweed (Amaranthus retroflexus), common ragweed (Ambrosia elatior), soybean (Glycine max) and velvetleaf (Abutilon theophrasti) were planted and treated preemergence with test chemicals formulated in a non-phytotoxic solvent mixture which included a surfactant.
(§2) At the same time, plants selected from these crop and weed species and also winter barley (Hordeum vulgare), blackgrass (Alopecurus myosuroides), canary grass (Phalaris minor), chickweed (Stellaria media), downy brome (Bromus tectorum), green foxtail (Setaria viridis), Italian ryegrass (Lolium multiflorum), wheat (Triticum aestivum), wild oat (Avena fatua) and windgrass (Apera spica-venti) were treated with postemergence applications of some of the test chemicals formulated in the same manner. Plants ranged in height from 2 to 18 cm (1- to 4-leaf stage) for postemergence treatments. Plant species in the flooded paddy test consisted of rice (Oryza saliva), smallflower flatsedge (Cyperus difformis), duck salad (Heteranthera limosa) and barnyardgrass (Echinochloa crus-galli) grown to the 2-leaf stage for testing. Treated plants and controls were maintained in a greenhouse for 12 to 14 days, after which time all species were compared to controls and visually evaluated. Plant response ratings, summarized in Table C, are based on a scale of 0 to 100 where 0 is no effect and 100 is complete control. A dash (-) response means no test result.

[1] = tested on: johnsongrass (Sorghum halepense); assay: Test C preemergence; details: for Plant response rating, Johnsongrass: scale 0 to 100, 0 no effect, 100 complete control; for Plant response rating (0 to 100), Johnsongrass: visual evaluation after 12 to 14 days
Description: as §1, §2

[2] = tested on: woolly cupgrass (Eriochloa villosa); assay: Test C preemergence; details: for Plant response rating, Cupgrass, Woolly: scale 0 to 100, 0 no effect, 100 complete control; for Plant response rating (0 to 100), Cupgrass, Woolly: visual evaluation after 12 to 14 days
Description: as §1, §2

[3] = tested on: common ragweed (Ambrosia elatior); assay: Test C preemergence; details: preemergence; for Plant response rating (0 to 100), Ragweed, Common: visual evaluation after 12 to 14 days
Description: as §1, §2

[4] = tested on: cocklebur (Xanthium strumarium); assay: Test C preemergence; details: for Plant response rating, Cocklebur: scale 0 to 100, 0 no effect, 100 complete control; for Plant response rating (0 to 100), Cocklebur: visual evaluation after 12 to 14 days
Description: as §1, §2

[5] = tested on: velvetleaf (Abutilon theophrasti); assay: Test C preemergence; details: preemergence; for Plant response rating (0 to 100), Velvetleaf: visual evaluation after 12 to 14 days
Description: as §1, §2

soybean (Glycine max) = assay: Test C preemergence; details: preemergence; for Plant response rating (0 to 100), Soybean: visual evaluation after 12 to 14 days
Description: as §1, §2

[6] = tested on: Surinam grass (Brachiaria decumbens); assay: Test C preemergence; details: for Plant response rating, Surinam grass: scale 0 to 100, 0 no effect, 100 complete control; for Plant response rating (0 to 100), Surinam grass: visual evaluation after 12 to 14 days
Description: as §1, §2

[7] = tested on: pigweed (Amaranthus retroflexus); assay: Test C preemergence; details: preemergence; for Plant response rating (0 to 100), Pigweed: visual evaluation after 12 to 14 days
Description: as §1, §2

[8] = tested on: bermudagrass (Cynodon dactylon); assay: Test C preemergence; details: for Plant response rating, Bermudagrass: scale 0 to 100, 0 no effect, 100 complete control; for Plant response rating (0 to 100 where 0 is no effect and 100 is complete control), Bermudagrass: visual evaluation after 12 to 14 days
Description: as §1, §2

kochia (Kochia scoparia) = assay: Test C preemergence; details: for Plant response rating, Kochia: scale 0 to 100, 0 no effect, 100 complete control; for Plant response rating (0 to 100), Kochia: visual evaluation after 12 to 14 days
Description: as §1, §2

[9] = tested on: giant foxtail (Setaria faberii); assay: Test C preemergence; details: for Plant response rating, Foxtail, Giant: scale 0 to 100, 0 no effect, 100 complete control
Description: as §1, §2

corn (Zea mays) = assay: Test C preemergence; details: for Plant response rating, Corn: scale 0 to 100, 0 no effect, 100 complete control; for Plant response rating (0 to 100), Corn: visual evaluation after 12 to 14 days
Description: as §1, §2

Sunflower = assay: Test C preemergence; details: visual evaluation after 12 to 14 days
[10] = tested on: crabgrass (Digitaria sanguinalis); assay: Test B postemergence; details: 13 to 15 days
Method in brief: (§3)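 Preemergence: seeds planted and treated with test chemicals in non-phytotoxic solvent with surfactant; postemergence on plants 2–18 cm (1- to 4-leaf stage). Kept in greenhouse 13–15 days, then visually rated against controls on a 0 (no effect) to 100 (complete control) scale.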

[11] = tested on: cocklebur (Xanthium strumarium); assay: Test B postemergence; details: 13 to 15 days
Method in brief: as §3

[12] = tested on: lambsquarters (Chenopodium album); assay: Test B postemergence; details: 13 to 15 days
Method in brief: as §3

wild oat (Avena fatua) = assay: Test B postemergence; details: 13 to 15 days
Method in brief: as §3

[13] = Rate 125 g/ha, scale 0 to 100, 0 no effect, 100 complete control
[14] = Rate 125 g/ha, scale 0 (no effect) to 100 (complete control)
[15] = Rate 500 g/ha, scale 0 to 100, 0 is no effect, 100 is complete control

CC1(c2ccn(C3OCN(c4cccc(C(F)(F)F)c4)C3=O)n2)CC1 (stereo not shown) [Compound 62]
Plant response rating, Nightshade (Nightshade; Rate 62 g/ha): 0
Plant response rating, Nightshade (Nightshade; Rate 125 g/ha): 0
Plant response rating, Johnsongrass ([1]; Rate 62 g/ha): 20
Plant response rating (0 to 100), Johnsongrass ([1]; preemergence, Rate 250 g/ha): 60
Plant response rating (0 to 100), Johnsongrass ([1]; preemergence, Rate 500 g/ha): 100
Plant response rating, Johnsongrass ([1]; preemergence, Rate 125 g/ha): 40
Plant response rating, Cupgrass, Woolly ([2]; Rate 62 g/ha): 30
Plant response rating (0 to 100), Cupgrass, Woolly ([2]; preemergence, Rate 250 g/ha): 90
Plant response rating (0 to 100), Cupgrass, Woolly ([2]; preemergence, Rate 500 g/ha): 90
Plant response rating, Cupgrass, Woolly ([2]; preemergence, Rate 125 g/ha): 50
Plant response rating (0 to 100), Ragweed, Common ([3]; Rate 250 g/ha): 0
Plant response rating (0 to 100), Ragweed, Common ([3]; Rate 500 g/ha): 0
Plant response rating, Ragweed, Common [3, 13]: 0
Plant response rating, Cocklebur ([4]; Rate 62 g/ha): 0
Plant response rating (0 to 100), Cocklebur ([4]; preemergence, Rate 250 g/ha): 0
Plant response rating (0 to 100), Cocklebur ([4]; preemergence, Rate 500 g/ha): 0
Plant response rating, Cocklebur ([4]; preemergence, Rate 125 g/ha): 0
Plant response rating (0 to 100), Velvetleaf ([5]; Rate 250 g/ha): 0
Plant response rating (0 to 100), Velvetleaf ([5]; Rate 500 g/ha): 20
Plant response rating, Velvetleaf [5, 13]: 0
Plant response rating (0 to 100), Soybean (soybean (Glycine max); Rate 250 g/ha): 0
Plant response rating (0 to 100), Soybean (soybean (Glycine max); Rate 500 g/ha): 0
Plant response rating, Soybean (soybean (Glycine max); [13]): 0
Plant response rating, Surinam grass ([6]; Rate 62 g/ha): 0
Plant response rating (0 to 100), Surinam grass ([6]; preemergence, Rate 250 g/ha): 60
Plant response rating (0 to 100), Surinam grass ([6]; preemergence, Rate 500 g/ha): 80
Plant response rating, Surinam grass ([6]; preemergence, Rate 125 g/ha): 30
Plant response rating (0 to 100), Pigweed ([7]; Rate 250 g/ha): 0
Plant response rating (0 to 100), Pigweed ([7]; Rate 500 g/ha): 100
Plant response rating, Pigweed [7, 13]: 0
Plant response rating, Bermudagrass ([8]; Rate 62 g/ha): 40
Plant response rating (0 to 100 where 0 is no effect and 100 is complete control), Bermudagrass ([8]; preemergence, Rate 250 g/ha): 100
Plant response rating (0 to 100 where 0 is no effect and 100 is complete control), Bermudagrass ([8]; preemergence, Rate 500 g/ha): 100
Plant response rating, Bermudagrass ([8]; preemergence, Rate 125 g/ha): 70
Plant response rating, Kochia (kochia (Kochia scoparia); Rate 62 g/ha): 0
Plant response rating (0 to 100), Kochia (kochia (Kochia scoparia); preemergence, Rate 250 g/ha): 90
Plant response rating (0 to 100), Kochia (kochia (Kochia scoparia); preemergence, Rate 500 g/ha): 90
Plant response rating, Kochia (kochia (Kochia scoparia); preemergence, Rate 125 g/ha): 60
Plant response rating, Foxtail, Giant ([9]; Rate 62 g/ha): 0
Plant response rating (0 to 100), Foxtail, Giant ([9]; preemergence, Rate 500 g/ha, visual evaluation after 12 to 14 days): 100
Plant response rating, Foxtail, Giant ([9]; preemergence, Rate 125 g/ha): 0
Plant response rating, Corn (corn (Zea mays); Rate 62 g/ha): 0
Plant response rating (0 to 100), Corn (corn (Zea mays); preemergence, Rate 250 g/ha): 0
Plant response rating (0 to 100), Corn (corn (Zea mays); preemergence, Rate 500 g/ha): 20
Plant response rating, Corn (corn (Zea mays); preemergence, Rate 125 g/ha): 0
Plant response rating (0 to 100), Sunflower (Sunflower; Rate 250 g/ha): 0
Plant response rating (0 to 100), Sunflower (Sunflower; Rate 500 g/ha): 0
Plant response rating, Crabgrass [10, 14]: 0
Plant response rating, Crabgrass [10, 15]: 0
Plant response rating, Cocklebur [11, 14]: 0
Plant response rating, Cocklebur [11, 15]: 0
Plant response rating, Lambsquarters [12, 14]: 0
Plant response rating, Lambsquarters [12, 15]: 60
Plant response rating, Wild Oat (wild oat (Avena fatua); [14]): 0
Plant response rating, Wild Oat (wild oat (Avena fatua); [15]): 0

Source: patent US7138361B2, “Herbicidal heterocycles” (E. I. du Pont de Nemours and Company, priority 2000, dated 2006)
